{"source": "patent US12042561B2", "about": "“Hydrophobic molecule-induced branched polymer aggregates and their use” (ANP Technologies, Inc., priority 2011, dated 2024)", "key": {"[1]": {"tested_on": "H460 human epithelial lung cancer cells", "test": "Cell survivability (MTS), H460", "conditions": "varying concentrations based on amount of drug, FIG. 18", "source_text": "(§1) Metabolism in viable cells produces “reducing equivalents,” such as, NADH or NADPH. Such reducing compounds pass electrons to an intermediate electron transfer reagent that can reduce the tetrazolium product, MTS (Promega), into an aqueous, soluble formazan product, which is colored. At death, cells rapidly lose the ability to reduce tetrazolium products. The production of the colored formazan product, therefore, is proportional to the number of viable cells in culture.\n(§2) The CellTiter 96® Aqueous products (Promega) are MTS assays for determining the number of viable cells in culture. […] A single reagent added directly to the assay wells at a recommended ratio of 20 μl reagent to 100 μl of culture medium was used. Cells were incubated 1-4 hours at 37° C. and then absorbance was measured at 490 nm.\n(§3) Varying concentrations of CPT-11 and the camptothecin branched polymer aggregates described above were prepared.\n(§4) Two cancer cell lines were maintained in suitable medium under recognized culture conditions. MCF-7 is a human breast cancer cell line and H460 is a human epithelial lung cancer cell line. Those cell lines were exposed to varying concentrations of CPT-11 and concentrations of the camptothecin aggregates based on the amount of drug. Cell survivability was assessed as described above."}, "[2]": {"tested_on": "MCF-7 human breast cancer cells", "test": "Cell survivability (MTS), MCF-7", "conditions": "varying concentrations based on amount of drug, FIG. 17", "source_text": "as §1, §2, §3, §4"}}, "data": [{"smiles": "CCc1c2c(nc3ccc(OC(=O)N4CCC(N5CCCCC5)CC4)cc13)-c1cc3c(c(=O)n1C2)COC(=O)[C@]3(O)CC", "note": "[CPT-11, Irinotecan]", "values": [{"measurement": "cytotoxicity", "setting": "[1]", "result": "dose response curve of cytotoxicity"}, {"measurement": "cytotoxicity", "setting": "[2]", "result": "increased with increasing drug concentration"}]}]}
